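Protocol summary: plate cells (96-well), add compound at 5 concentrations, incubate 48 h, interpolate endpoints linearly. TGI denotes the concentration required for complete inhibition of growth.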
Key:
Experiment in all cases: inhibition of tumour cell growth, NCI panel, 48 h
[1] = system: SNB-19 CNS
[2] = system: OVCAR-8 ovarian
[3] = system: NCI-H522 lung
[4] = system: IGROV1 ovarian
[5] = system: DMS 273 small cell lung
[6] = system: DLD-1 colon
[7] = system: OVCAR-3 ovarian
[8] = system: SF-268 CNS
[9] = system: HS 578T breast
[10] = system: DU-145 prostate

`COC(=O)C(=Cc1cc(OC)c(OC)c(OC)c1-c1cc2c(cc1C1(C)OCCS1)OCO2)C(=O)OC` (stereo not drawn) was tested, and the TGI [1] was > 100 µM, the TGI [2] was > 100 µM and the TGI [3] was 55.5 µM. The TGI [4] was > 100 µM, the TGI [5] was 75.1 µM and the TGI [6] was > 100 µM. The TGI [7] was 54.6 µM and the TGI [8] was > 100 µM.

With `CSc1nc(SC)c2c(C#N)[nH]nc2n1` the TGI [1] was > 100 µM, the TGI [2] was > 100 µM and the TGI [3] was > 100 µM. The TGI [4] was > 100 µM, the TGI [5] was > 100 µM and the TGI [6] was > 100 µM. For the same compound, the TGI [7] was > 100 µM and the TGI [8] was > 100 µM.

`O=[N+]([O-])C(=C(Nc1ccccc1)Nc1ccccc1)C(Cl)=C(Cl)Cl` was tested, and the TGI [1] was 32.9 µM, the TGI [2] was 48.5 µM and the TGI [3] was 39.6 µM. It also gave a TGI [9] of 55.5 µM, a TGI [4] of 27.2 µM and a TGI [10] of 34.5 µM. For the same compound, the TGI [7] was 33.5 µM and the TGI [8] was 40 µM.

In the case of `CCCCCCCCCCCCCCCCNc1cccc2ccccc12`, the TGI [1] is reported as > 100 µM, the TGI [2] is reported as > 100 µM and the TGI [3] is reported as > 100 µM. The TGI [4] was > 100 µM, the TGI [5] was > 100 µM and the TGI [6] was > 100 µM. For the same compound, the TGI [7] was > 100 µM and the TGI [8] was > 100 µM.

In the case of `COc1cc2c(cc1OC)C1C3CCCCC3CCN1CC2` (stereo not drawn), the TGI [1] is reported as > 100 µM, the TGI [2] is reported as > 100 µM and the TGI [3] is reported as > 100 µM. For the same compound, the TGI [9] was > 100 µM, the TGI [4] was > 100 µM and the TGI [10] was > 100 µM. The TGI [7] was > 100 µM and the TGI [8] was > 100 µM.

With `O=C1CCC(c2ccccc2)=NN1c1nsc2ccccc12` the TGI [1] was > 100 µM, the TGI [2] was > 100 µM and the TGI [4] was > 100 µM. The TGI [5] was > 100 µM, the TGI [7] was > 100 µM and the TGI [8] was > 100 µM.

With `COc1cc(OC)c2c(=O)cc(-c3ccc(OC)c(OC)c3OC)oc2c1` the TGI [1] was > 100 µM, the TGI [3] was > 100 µM and the TGI [4] was > 100 µM. For the same compound, the TGI [6] was > 100 µM, the TGI [7] was > 100 µM and the TGI [8] was > 100 µM.

`CSc1cc(-c2cccs2)sc1-c1cc(SC)c(-c2sc(-c3sc(-c4cccs4)cc3SC)cc2SC)s1` was tested, and the TGI [1] was > 100 µM, the TGI [2] was > 100 µM and the TGI [3] was > 100 µM. The TGI [9] was > 100 µM, the TGI [4] was > 100 µM and the TGI [10] was > 100 µM. For the same compound, the TGI [7] was > 100 µM and the TGI [8] was > 100 µM.

In the case of `O=C(O)c1ccccc1CC(Cc1ccc2c(c1)CCC2)C(=O)O` (stereo not drawn), the TGI [1] is reported as > 100 µM, the TGI [2] is reported as > 100 µM and the TGI [3] is reported as > 100 µM. For the same compound, the TGI [9] was > 100 µM, the TGI [4] was > 100 µM and the TGI [10] was > 100 µM. The TGI [7] was > 100 µM and the TGI [8] was > 100 µM.

`O=C1NC(N2CCOCC2)=N/C1=C\c1ccco1` was tested, and the TGI [1] was > 100 µM, the TGI [2] was > 100 µM and the TGI [3] was > 100 µM. The TGI [9] was > 100 µM, the TGI [4] was > 100 µM and the TGI [10] was > 100 µM. The TGI [7] was > 100 µM and the TGI [8] was > 100 µM.

In the case of `C=C1C(=O)CC2C1CC(=O)/C(C)=C/CCC(C)(O)C2O` (stereo not drawn), the TGI [1] is reported as > 67.1 µM, the TGI [2] is reported as 11.6 µM and the TGI [3] is reported as 3.04 µM. It also gave a TGI [9] of 26.5 µM, a TGI [4] of 20.4 µM and a TGI [10] of 19.7 µM. For the same compound, the TGI [7] was 17 µM and the TGI [8] was 35.6 µM.

In the case of `COC(=O)C(Cc1ccc2c(c1)CCC2)Cc1ccc2c(c1)CCC2`, the TGI [1] is reported as > 100 µM, the TGI [2] is reported as > 100 µM and the TGI [3] is reported as > 100 µM. The TGI [9] was > 100 µM, the TGI [4] was > 100 µM and the TGI [10] was > 100 µM. For the same compound, the TGI [7] was > 100 µM and the TGI [8] was > 100 µM.

In the case of `C/C(C[n+]1ccccc1)=N\N=C(N)N`, the TGI [1] is reported as > 100 µM, the TGI [2] is reported as > 100 µM and the TGI [3] is reported as > 100 µM. The TGI [9] was > 100 µM, the TGI [4] was > 100 µM and the TGI [10] was > 100 µM. The TGI [7] was > 100 µM and the TGI [8] was > 100 µM.

In the case of `Oc1cc(Cl)cc2cccnc12`, the TGI [1] is reported as > 100 µM, the TGI [2] is reported as > 100 µM and the TGI [3] is reported as 5.32 µM. For the same compound, the TGI [9] was > 48.5 µM, the TGI [4] was 5.12 µM and the TGI [10] was > 89.7 µM. For the same compound, the TGI [7] was 3.18 µM and the TGI [8] was > 39.5 µM.

With `CC(O)CNC(=O)C(C)Oc1ccc(OCC2CCCCC2)cc1` (stereo not drawn) the TGI [1] was > 100 µM, the TGI [2] was > 100 µM and the TGI [3] was > 100 µM. For the same compound, the TGI [4] was > 100 µM, the TGI [5] was > 100 µM and the TGI [7] was > 100 µM. For the same compound, the TGI [8] was > 100 µM.

`Cc1cc(/N=C/c2ccc(N(C)C)cc2)n(-c2ccccc2)n1` was tested, and the TGI [1] was > 100 µM, the TGI [2] was > 100 µM and the TGI [3] was > 100 µM. The TGI [9] was > 100 µM, the TGI [4] was > 100 µM and the TGI [10] was > 100 µM. The TGI [7] was 82.4 µM and the TGI [8] was > 100 µM.

With `O=P(O)(O)C(N=C(Nc1ccccc1)Nc1ccccc1)P(=O)(O)O` the TGI [1] was > 100 µM, the TGI [2] was > 100 µM and the TGI [3] was > 100 µM. The TGI [9] was > 100 µM, the TGI [4] was > 100 µM and the TGI [10] was > 100 µM. For the same compound, the TGI [7] was > 100 µM and the TGI [8] was > 100 µM.

`CC1(C)[C@@H]2CC[C@@]1(C)CN(CCC[N+](C)(C)C)C2` was tested, and the TGI [1] was > 100 µM, the TGI [2] was > 100 µM and the TGI [3] was > 100 µM. For the same compound, the TGI [9] was > 100 µM, the TGI [4] was > 100 µM and the TGI [10] was > 100 µM. The TGI [7] was > 100 µM and the TGI [8] was > 100 µM.

With `O=[N+]([O-])C(=C(Nc1cccc2cccnc12)Nc1cccc2cccnc12)C(Cl)=C(Cl)Cl` the TGI [1] was > 100 µM, the TGI [2] was > 100 µM and the TGI [3] was 56.3 µM. The TGI [9] was > 100 µM, the TGI [4] was > 100 µM and the TGI [10] was > 100 µM. For the same compound, the TGI [7] was > 100 µM and the TGI [8] was > 100 µM.

With `C=C(C(=O)OCC)C(=O)OCC` the TGI [1] was > 100 µM, the TGI [2] was > 100 µM and the TGI [3] was > 100 µM. The TGI [9] was > 100 µM, the TGI [4] was > 100 µM and the TGI [10] was > 100 µM. For the same compound, the TGI [7] was > 100 µM and the TGI [8] was > 100 µM.

In the case of `CC(=NNC(=S)Nc1ccccc1)c1cccc(C(C)=NNC(=S)Nc2ccccc2)n1`, the TGI [1] is reported as > 100 µM, the TGI [2] is reported as > 50.2 µM and the TGI [3] is reported as > 100 µM. For the same compound, the TGI [9] was > 100 µM, the TGI [4] was > 50.2 µM and the TGI [10] was > 100 µM. The TGI [7] was > 28.5 µM and the TGI [8] was > 100 µM.

Reference: PubChem BioAssay (NCI)
